Reference: patent US6069132A, “Phosphazole compounds” (priority 1997, dated 2000)
Values after ≈ are worked out from the molar mass of the structure shown. Values belong to the molecule of their own block, whether it stands above or below them.

Key:
[1] = system: IL-1β; experiment: Inhibition of IL-1β production in LPS-stimulated THP-1 cells (ELISA); type: cell-based, human; settings: Homo sapiens; Table 2; LPS-stimulated THP-1, 6 h post-stimulation; read-out: IC50 IL-1β in THP-1 cells
Protocol: (§1) Cell line. THP-1 cells (human monocyte) were maintained in RPMI 1640 medium containing 25 mM Hepes buffer, 2 mM L-glutamine, 50 units of penicillin per mL, 50 μg of streptomycin sulfate per mL, and 10% heat-inactivated fetal bovine serum (FBS) in a humidified incubator containing 5% CO2. The cells were split 1:4 weekly as recommended by the American Type Culture Collection (ATCC).
TNFα assay. Varying concentrations of the test compound or control compound were added to THP-1 cells plated at a density of 1×10^6cells/mL in 600 μL of 10% RPMI in a 48 well plate. After one hour the cells were stimulated with 0.5 μg of lipopolysaccharide (LPS; Sigma, lot number 43H40491) per mL. Six hours post-stimulation supernatants were collected and assayed for TNFα or IL-1β production using a commercially available cytokine detection ELISA (Enzyme Linked Immunosorbent Assay) kit according to the suppliers instructions. A suitable assay kit may be obtained from Biosource, or R and D systems. A novel xanthine analog, HWA-3138, having the structure (as shown below) was used as the control compound (30) in this study to monitor the response of the THP-l cells. Xanthine analogs are known inhibitors of TNFα but not IL-1β. In the following experiments compound HWA-3138 was used as a positive control. [drawing 58] […]
THP-1 cells were cultured and IL-1β inhibition assays were conducted as described for TNFα in Example 46, except a commercially available IL-1β assay kit, obtained from R and D Systems, Minneapolis, Minn., was used instead of the TNFα kit.
With reference now to FIG. 8, for each concentration of T70241 tested, the membrane bound IL-1β was separated from the IL-1β found free in the culture medium at 6 hours post-LPS stimulation as described in Example 46 for TNFα, and the percent inhibition of each fraction was graphed.

[2] = system: TNFα; experiment: Inhibition of TNFα production in LPS-stimulated THP-1 cells (ELISA); type: cell-based, human; settings: Homo sapiens; Table 2; LPS-stimulated THP-1, 6 h post-stimulation
Protocol: as §1
TNFα assay. Varying concentrations of the test compound or control compound were added to THP-1 cells plated at a density of 1×10^6cells/mL in 600 μL of 10% RPMI in a 48 well plate. After one hour the cells were stimulated with 0.5 μg of lipopolysaccharide (LPS; Sigma, lot number 43H40491) per mL. Six hours post-stimulation supernatants were collected and assayed for TNFα or IL-1β production using a commercially available cytokine detection ELISA (Enzyme Linked Immunosorbent Assay) kit according to the suppliers instructions. A suitable assay kit may be obtained from Biosource, or R and D systems. A novel xanthine analog, HWA-3138, having the structure (as shown below) was used as the control compound (30) in this study to monitor the response of the THP-l cells. Xanthine analogs are known inhibitors of TNFα but not IL-1β. In the following experiments compound HWA-3138 was used as a positive control. [drawing 58]
Time of Addition. Varying concentrations of test or control compounds were added to THP-1 cells (1×10^6 cells/mL) at different time points post-stimulation using 0.5 μg of LPS (Sigma, lot number 43H40491) per mL in 300 μL of 10% RPMI in a 48 well plate. Six hours post-stimulationsupernatants were collected and assayed for TNFα or IL-1β production using a Biosource cytokine detection ELISA (Enzyme Linked Immunosorbent Assay) kit according to the supplier's instructions.
The membrane bound TNFα was separated from the free TNFα in the culture medium at 6 hours post-LPS stimulation as follows: The corresponding cells were centrifuged at 3500 rpm (~1,000×g) for 6 min. The supernatants were removed and the cell pellets were then resuspended in 200 μL of 0.25 mM Tris-HCl (pH 7.4). The cell associated TNFα was prepared by freezing the cell suspension in dry ice/ethanol and thawing at 37° C. three times with Vortexing in-between freeze-thaw cycles. Each cycle was 4-5 min apart.
To determine the long-term effects of phosphazole compound T70241 on TNFα production after a single treatment, THP-1 cells were pre-incubated with T70241, washed and resuspended in drug free medium. The xanthine analog HWA-3138 was used as a control.

[3] = Cytotoxicity on growing THP-1 cells (MTS assay); type: cell-based, human; settings: human, thp-1 cells; Table 2; drug dose required to inhibit logphase growing cells by 50%; read-out: TC50 Growing THP-1
Protocol: Cytotoxicity Analysis. The cytotoxicity of the compounds were assayed using the CellTiter 96™ Aqueous Non-Radioactive Cell Proliferation (MTS) Assay kit obtained from Promega (Madison, Wis.) following the instructions provided by the supplier. The viable cell number was determined by trypan blue staining and cells (THP-1) were resuspended in PRMI supplemented with 10% FBS (GIBCO). Eighty microliters of cell suspension (1.7×10^4cells/well) was dispensed onto a 96-well microtiter plates. At this time 20 μL of drug (or control) was added to appropriate wells. Each concentration was assayed in quadruplicate. The plates were incubated at 37° C. in a humidified 5% CO2 atmosphere for 4 days and MTS assay […] for each concentration and the data obtained was used to calculate TC50 (the concentration of the compound necessary to inhibit the cell growth by 50%) for each compound.

[4] = system: HCMV (Town strain); experiment: HCMV plaque reduction (CPE) assay in MRC-5 cells; type: cell-based, human cytomegalovirus; settings: Human betaherpesvirus 5, MRC5; Table 4; read-out: IC50 HCMV
Protocol: The adenine analog phosphazole (compound T70241) was assayed for antiviral activity using a HCMV plaque reduction assay, in accordance with known methods such as that described in U.S. Pat. No. 5,446,045.
(§2) Cell Culture. Vero (African Green Monkey kidney cells) and MRC-5 (diploid Human Embryonic Lung fibroblasts) cells were obtained from the American Type Culture Collection (ATCC) and were grown in minimal essential medium (MEM) with Earl's salts and glutamine (GIBCO BRL, Life Technologies, Inc.) with 10% heat inactivated fetal bovine serum (GIBCO BRL) and penicillin (100 μg/mL)/streptomycin (100 μg/mL).
CMV Cytopathic Effect (CPE) Assay. Assays were performed essentially as described by Lewis et al. (111), which report is incorporated herein by reference. MRC-5 cells (100,000 cells/well) were seeded in 24-well plates overnight. Medium was then removed and wells were rinsed once with 250 μL of 2% FCS-MEM before adding 40-50 pfu of HCMV (Town strain) to each well. After 2 hours of virus adsorption, the medium was removed and the cells were rinsed once with 2% FCS-MEM. Varying concentrations of the phosphazole compound in the culture medium (1 mL) was then added to appropriate wells and plates were incubated for 5-6 days at 37° C. in a humidified 5% CO2 atmosphere. Each concentration was tested in duplicate wells.
The extent of the plaque reduction was quantitated by removing the media and adding 200 μL of 0.1% crystal violet in 20% methanol to all wells. The crystal violet was then removed after 10 min staining at room temperature by rinsing in the sink with tap water and the plates dried overnight. The plaques were then counted using a Nikon inverted microscope.

[5] = system: HSV-1; experiment: HSV-1 CPE assay in Vero cells; type: cell-based; settings: Human alphaherpesvirus 1, Vero
[6] = Cytotoxicity on static MRC-5 cells; type: cell-based; settings: human, Table 4, 50% cell death (static cells), read-out: TC50 Static MRC-5
Protocol: as §2
(§3) Cytotoxicity Analysis. The cytotoxicity of the compound was assayed using few the CellTiter 96™ Aqueous Non-Radioactive Cell Proliferation (MTS) Assay (Promega). Briefly, viable cell number was determined by trypan blue staining and cells (MRC-5 and Vero) were resuspended in minimal essential medium (MEM) supplemented with 10% FBS (GIBCO). Eighty microliters of cell suspension (1.7×10^4 cells/well) was dispensed onto a 96-well microtiter plates. At this time 20 μL of drug (or control) was added to appropriate wells. Each concentration was assayed in quadruplicate. The plates were incubated at 37° C. in a humidified 5% CO2 atmosphere for 4 days and MTS assay was performed according to the manufacturer's instructions. The average absorbence of the sample was graphed for each concentration and the data obtained was used to calculate TC50 (the concentration necessary to give one-half maximum growth) for each compound.

[7] = system: HSV-2; experiment: HSV-2 CPE assay in Vero cells; type: cell-based; settings: Human alphaherpesvirus 2, Vero
[8] = Cytotoxicity on growing Vero cells (MTS); type: cell-based; settings: african green monkey, Table 4, 50% inhibition of logphase growing cells, read-out: TC50 Growing Vero
Protocol: as §2, §3

[9] = Cytotoxicity on static Vero cells; type: cell-based; settings: african green monkey, Table 4, 50% cell death (static cells), read-out: TC50 Static Vero
Protocol: as §2, §3

[10] = Cytotoxicity on growing MRC-5 cells (MTS); type: cell-based, human; settings: human, mrc-5 cells; Table 4; 50% inhibition of logphase growing cells; read-out: TC50 Growing MRC-5
Protocol: as §2, §3

[11] = system: HCMV; settings: cited from earlier work
[12] = system: TNFα; settings: by inhibition of PDE activity; cited from earlier work

IC50 [1]: > 100 mg/L
IC50 [2]: 26.2 mg/L (≈ 97.6 µM)
Compound: Nc1ncnc2pcn([C@H]3C[C@H](O)[C@@H](CO)O3)c12 (stereo partly drawn) [T70265, 7-Amino-1-(2-deoxy-β-D-eythro-pentofuranosyl)-1,3-azaphospholo[4,5-d]pyrimidine]
CC50 at 96 h [3]: 105 mg/L (≈ 390 µM)

Compound: Nc1ncnc2pcn(COCCO)c12 (stereo not shown) [T70268, 7-Amino-1-[(2-hydroxyethoxy)methyl]-1,3-azaphospholo-[4,5-d]pyrimidine]
IC50 [4]: > 50 mg/L
IC50 ([5]; Table 4): > 50 mg/L
IC50 [1]: > 100 mg/L
IC50 [2]: > 100 mg/L
CC50 at 96 h [6]: > 50 mg/L
IC50 ([7]; Table 4): > 50 mg/L
CC50 at 96 h [8]: > 50 mg/L
CC50 at 96 h [9]: > 50 mg/L
CC50 at 96 h [10]: > 50 mg/L

Compound: Nc1ncnc2pcn(COC(CO)CO)c12 (stereo not shown) [T70269, 7-Amino-1-[(1,3-dihydroxy-2-propoxy)methyl]-1,3-azaphospholo [4,5-d]pyrimidine]
IC50 [4]: 26.1 mg/L (≈ 102 µM)
IC50 [5]: 2.75 mg/L (≈ 10.7 µM)
IC50 [1]: > 100 mg/L
IC50 [2]: > 100 mg/L
CC50 at 96 h [6]: > 50 mg/L
IC50 [7]: 27.8 mg/L (≈ 108 µM)
CC50 at 96 h [8]: 41.4 mg/L (≈ 162 µM)
CC50 at 96 h [9]: > 50 mg/L
CC50 at 96 h [10]: > 50 mg/L

IC50 [1]: > 250 mg/L
IC50 [2]: 239 mg/L (≈ 1410 µM)
Compound: O=c1[nH]c(=O)c2[nH]cpc2[nH]1 (stereo not shown) [T70270, 1,3-Azaphospholo[4,5-d]pyrimidine-5,7(1H, 4H,6H) -dione]

IC50 [1]: > 250 mg/L
IC50 [2]: 37.3 mg/L (≈ 177 µM)
Compound: Cn1c(=O)c2c(pcn2C)n(C)c1=O (stereo not shown) [T70271, 1,4,6-Trimethyl-1,3-azaphospholo[4,5-d]pyrimidine-5,7-dione]

Compound: N#Cc1cn([C@@H]2O[C@H](CO)[C@@H](O)[C@@H]2O)c2ncnc(N)c12 [ara-toyocamycin]
activity against HCMV [11]: selective activity against HCMV

Compound: Nc1ncnc2c1ccn2[C@@H]1O[C@H](CO)[C@@H](O)[C@@H]1F [arafluoro-tubercidin]
activity against HCMV [11]: selective activity against HCMV

Compound: CC(=O)CCCCn1c(=O)c2c(ncn2C)n(C)c1=O [pentoxifylline]
suppression of TNFα production [12]: suppression of TNFα production
